{"source": "patent US20130273183A1", "about": "“2-Pyrimidine Thioesters and Thiocarbonates as Skin Brightening Agents” (EASTMAN CHEMICAL COMPANY, priority 2012, published 2013)", "note": "Marks after values point to notes of the source that are not given here.", "data": [{"test_system": "B16-F10 murine melanoma cells", "assay": "Melanogenesis inhibition assay (melanin content, absorbance at 450 nm)", "assay_type": "cell-based", "conditions": "Mus musculus, 72 h, 0.1 mmol/L, read-out: Melanogenesis % of control", "experimental": "(§1) Melanocytes (B16-F10/CRL-6475 murine melanoma cells, purchased from ATCC) were cultured in Dulbecco's Modified Eagle's Medium (DMEM)/Ham's F-12 50:50 mix with L-glutamine w/out phenol red/10% (v/v) newborn calf serum/1% (v/v) 100× Invitrogen Cat #15240-062 Antibiotic-Antimycotic at 37° C. (i.e., the growth medium) in a humidified atmosphere with 5% CO2. The cells were seeded into 12.5 cm^2 tissue culture flasks at a concentration of 1.0×10^5 cells/mL. A 3-mL cell suspension (seed medium) was added to each flask. The test compounds were dissolved in dimethyl sulfoxide (DMSO) at a concentration of 0.5 M. This 0.5 M stock was used to prepare various concentrations of the test compounds in growth medium, with the final concentration of DMSO at 0.2% by weight. Growth medium with diluted test compound is referred to as the dose medium. The controls were treated in the same manner, but without the test compound. After 24 hrs of incubation, the seed medium was replaced with 3 mL of dose medium (growth medium with various concentrations of test samples or control compounds). The dose medium was […] day, and the incubation continued for an additional 2 days. The dose medium was removed. The cells were dissolved in 1 mL of 1 N NaOH during incubation at 80° C. for 10 min. Samples of extracted melanin were transferred to a 96-well plate, and the absorbance was read at 450 nm. Each experiment was repeated three times. Kojic acid, arbutin, and hydroquinone were used as positive controls.", "units": {"activity at 100 µM": "%"}, "values": [{"smiles": "CC(C)(C)C(=O)Sc1ncccn1", "note": "[Example 5, Pyrimidin-2′-yl 2,2-Dimethylpropanethioate]", "activity at 100 µM": 66}, {"smiles": "CC(=O)Sc1ncccn1", "note": "[Example 1, Pyrimidin-2-yl Thiolacetate]", "activity at 100 µM": 71}, {"smiles": "CCOC(=O)Sc1ncccn1", "note": "[Example 3, O-Ethyl-5-pyrimidin-2-yl Monothiolcarbonate]", "activity at 100 µM": 81}, {"smiles": "CCC(=O)Sc1ncccn1", "note": "[Example 2, Pyrimidin-2-yl Thiolpropionate]", "activity at 100 µM": 67}, {"smiles": "O=C(Sc1ncccn1)c1cccnc1", "note": "[Example 7, S-Pyrimidin-2′-yl Pyridine-3-carbothioate]", "activity at 100 µM": 72}, {"smiles": "OC[C@H]1O[C@@H](Oc2ccc(O)cc2)[C@H](O)[C@@H](O)[C@@H]1O", "note": "[Arbutin, arbutin, reference compound]", "activity at 100 µM": 92}, {"smiles": "O=c1cc(CO)occ1O", "note": "[Kojic acid, reference compound]", "activity at 100 µM": 94}, {"smiles": "COC(=O)CSc1ncccn1", "note": "[Comparative Example 1, Methyl 2-(pyrimidin-2′-ylthio)acetate, reference compound]", "activity at 100 µM": 115}, {"smiles": "COC(=O)CCSc1ncccn1", "note": "[Comparative Example 2, Methyl 3-(Pyrimidin-2′-ylthio)propionate, reference compound]", "activity at 100 µM": 98}, {"smiles": "O=C(Sc1ncccn1)c1ccccc1", "note": "[Example 6, Pyrimidin-2-yl Thiolbenzoate]", "activity at 100 µM": 69}, {"smiles": "O=C(Sc1ncccn1)c1ccncc1", "note": "[Example 8, S-Pyrimidin-2′-yl Pyridine-4-carbothioate]", "activity at 100 µM": 70}]}, {"test_system": "B16-F10 murine melanoma cells", "assay": "Melanogenesis inhibition assay (melanin content, absorbance at 450 nm)", "assay_type": "cell-based", "conditions": "Mus musculus, 72 h, 0.25 mmol/L, read-out: Melanogenesis % of control", "experimental": "as §1", "units": {"activity at 250 µM": "%"}, "values": [{"smiles": "Sc1ncccn1", "note": "[2-Mercapto-Pyrimidine, 2-Mercaptopyrimidine, reference compound]", "activity at 250 µM": 42}]}, {"test_system": "B16-F10 murine melanoma cells", "assay": "Melanogenesis inhibition assay (melanin content, absorbance at 450 nm)", "assay_type": "cell-based", "conditions": "Mus musculus, 72 h, 0.5 mmol/L (footnote *), read-out: Melanogenesis % of control", "experimental": "as §1", "units": {"activity at 500 µM": "%"}, "values": [{"smiles": "COC(=O)CCSc1ncccn1", "note": "[Comparative Example 2, Methyl 3-(Pyrimidin-2′-ylthio)propionate, reference compound]", "activity at 500 µM": 96}, {"smiles": "Oc1ccc(O)cc1", "note": "[Hydroquinone, hydroquinone, reference compound]", "activity at 500 µM": 33}, {"smiles": "O=C(Sc1ncccn1)c1ccncc1", "note": "[Example 8, S-Pyrimidin-2′-yl Pyridine-4-carbothioate]", "activity at 500 µM": 38}, {"smiles": "Sc1ncccn1", "note": "[2-Mercapto-Pyrimidine, 2-Mercaptopyrimidine, reference compound]", "activity at 500 µM": 35}]}, {"test_system": "B16-F10 murine melanoma cells", "assay": "Melanogenesis inhibition assay (melanin content, absorbance at 450 nm)", "assay_type": "cell-based", "conditions": "Mus musculus, 72 h, 1.0 mmol/L, read-out: Melanogenesis % of control", "experimental": "as §1", "units": {"activity at 1000 µM": "%"}, "values": [{"smiles": "CC(C)(C)C(=O)Sc1ncccn1", "note": "[Example 5, Pyrimidin-2′-yl 2,2-Dimethylpropanethioate]", "activity at 1000 µM": 28}, {"smiles": "CC(=O)Sc1ncccn1", "note": "[Example 1, Pyrimidin-2-yl Thiolacetate]", "activity at 1000 µM": 33}, {"smiles": "CCOC(=O)Sc1ncccn1", "note": "[Example 3, O-Ethyl-5-pyrimidin-2-yl Monothiolcarbonate]", "activity at 1000 µM": 36}, {"smiles": "CCC(=O)Sc1ncccn1", "note": "[Example 2, Pyrimidin-2-yl Thiolpropionate]", "activity at 1000 µM": 36}, {"smiles": "O=C(Sc1ncccn1)c1cccnc1", "note": "[Example 7, S-Pyrimidin-2′-yl Pyridine-3-carbothioate]", "activity at 1000 µM": 27}, {"smiles": "OC[C@H]1O[C@@H](Oc2ccc(O)cc2)[C@H](O)[C@@H](O)[C@@H]1O", "note": "[Arbutin, arbutin, reference compound]", "activity at 1000 µM": 83}, {"smiles": "O=c1cc(CO)occ1O", "note": "[Kojic acid, reference compound]", "activity at 1000 µM": 86}, {"smiles": "COC(=O)CSc1ncccn1", "note": "[Comparative Example 1, Methyl 2-(pyrimidin-2′-ylthio)acetate, reference compound]", "activity at 1000 µM": 98}, {"smiles": "O=C(Sc1ncccn1)c1ccccc1", "note": "[Example 6, Pyrimidin-2-yl Thiolbenzoate]", "activity at 1000 µM": 39}]}, {"test_system": "B16-F10 murine melanoma cells", "assay": "Cell viability assay (MTT)", "assay_type": "cell-based", "conditions": "0.1 mmol/L; MTT; B16-F10 cells", "experimental": "(§2) After incubating the melanocytes with test samples or control compounds as mentioned above, 330 μL of a MTT solution (5 mg/mL MTT in standard medium with no added serum or antibiotic) was added. […] After orbital shaking for 10 min at room temperature, 1 mL of the contents of each flask was transferred to microfuge tubes and centrifuged for 10 min. 200 μL of each tube were then transferred to a 96-well plate, and the relative extent of MTT reduction was determined based on the absorbance at 590 nm. […] Kojic acid, arbutin, and hydroquinone were used as positive controls.", "values": [{"smiles": "CC(C)(C)C(=O)Sc1ncccn1", "note": "[Example 5, Pyrimidin-2′-yl 2,2-Dimethylpropanethioate]", "Cell Viability % of control": "91 % of control"}, {"smiles": "CC(=O)Sc1ncccn1", "note": "[Example 1, Pyrimidin-2-yl Thiolacetate]", "Cell Viability % of control": "100 % of control"}, {"smiles": "CCOC(=O)Sc1ncccn1", "note": "[Example 3, O-Ethyl-5-pyrimidin-2-yl Monothiolcarbonate]", "Cell Viability % of control": "87 % of control"}, {"smiles": "CCC(=O)Sc1ncccn1", "note": "[Example 2, Pyrimidin-2-yl Thiolpropionate]", "Cell Viability % of control": "113 % of control"}, {"smiles": "O=C(Sc1ncccn1)c1cccnc1", "note": "[Example 7, S-Pyrimidin-2′-yl Pyridine-3-carbothioate]", "Cell Viability % of control": "101 % of control"}, {"smiles": "OC[C@H]1O[C@@H](Oc2ccc(O)cc2)[C@H](O)[C@@H](O)[C@@H]1O", "note": "[Arbutin, arbutin, reference compound]", "Cell Viability % of control": "125 % of control"}, {"smiles": "COC(=O)CSc1ncccn1", "note": "[Comparative Example 1, Methyl 2-(pyrimidin-2′-ylthio)acetate, reference compound]", "Cell Viability % of control": "114 % of control"}, {"smiles": "COC(=O)CCSc1ncccn1", "note": "[Comparative Example 2, Methyl 3-(Pyrimidin-2′-ylthio)propionate, reference compound]", "Cell Viability % of control": "88 % of control"}, {"smiles": "O=C(Sc1ncccn1)c1ccccc1", "note": "[Example 6, Pyrimidin-2-yl Thiolbenzoate]", "Cell Viability % of control": "91 % of control"}, {"smiles": "O=C(Sc1ncccn1)c1ccncc1", "note": "[Example 8, S-Pyrimidin-2′-yl Pyridine-4-carbothioate]", "Cell Viability % of control": "92 % of control"}]}, {"test_system": "B16-F10 murine melanoma cells", "assay": "Cell viability assay (MTT)", "assay_type": "cell-based", "conditions": "0.25 mmol/L; MTT; B16-F10 cells; no replication", "experimental": "as §2", "values": [{"smiles": "Sc1ncccn1", "note": "[2-Mercapto-Pyrimidine, 2-Mercaptopyrimidine, reference compound]", "Cell Viability % of control": "81** % of control"}]}, {"test_system": "B16-F10 murine melanoma cells", "assay": "Cell viability assay (MTT)", "assay_type": "cell-based", "conditions": "0.5 mmol/L (footnote *); MTT; B16-F10 cells", "experimental": "as §2", "values": [{"smiles": "COC(=O)CCSc1ncccn1", "note": "[Comparative Example 2, Methyl 3-(Pyrimidin-2′-ylthio)propionate, reference compound]", "Cell Viability % of control": "84* % of control"}, {"smiles": "O=C(Sc1ncccn1)c1ccncc1", "note": "[Example 8, S-Pyrimidin-2′-yl Pyridine-4-carbothioate]", "Cell Viability % of control": "36* % of control"}, {"smiles": "Sc1ncccn1", "note": "[2-Mercapto-Pyrimidine, 2-Mercaptopyrimidine, reference compound]", "Cell Viability % of control": "68* % of control"}]}, {"test_system": "B16-F10 murine melanoma cells", "assay": "Cell viability assay (MTT)", "assay_type": "cell-based", "conditions": "1.0 mmol/L; MTT; B16-F10 cells", "experimental": "as §2", "values": [{"smiles": "CC(C)(C)C(=O)Sc1ncccn1", "note": "[Example 5, Pyrimidin-2′-yl 2,2-Dimethylpropanethioate]", "Cell Viability % of control": "7 % of control"}, {"smiles": "CC(=O)Sc1ncccn1", "note": "[Example 1, Pyrimidin-2-yl Thiolacetate]", "Cell Viability % of control": "6.6 % of control"}, {"smiles": "CCOC(=O)Sc1ncccn1", "note": "[Example 3, O-Ethyl-5-pyrimidin-2-yl Monothiolcarbonate]", "Cell Viability % of control": "32 % of control"}, {"smiles": "CCC(=O)Sc1ncccn1", "note": "[Example 2, Pyrimidin-2-yl Thiolpropionate]", "Cell Viability % of control": "13.6 % of control"}, {"smiles": "O=C(Sc1ncccn1)c1cccnc1", "note": "[Example 7, S-Pyrimidin-2′-yl Pyridine-3-carbothioate]", "Cell Viability % of control": "3.5 % of control"}, {"smiles": "OC[C@H]1O[C@@H](Oc2ccc(O)cc2)[C@H](O)[C@@H](O)[C@@H]1O", "note": "[Arbutin, arbutin, reference compound]", "Cell Viability % of control": "134 % of control"}, {"smiles": "COC(=O)CSc1ncccn1", "note": "[Comparative Example 1, Methyl 2-(pyrimidin-2′-ylthio)acetate, reference compound]", "Cell Viability % of control": "117 % of control"}, {"smiles": "O=C(Sc1ncccn1)c1ccccc1", "note": "[Example 6, Pyrimidin-2-yl Thiolbenzoate]", "Cell Viability % of control": "69 % of control"}]}, {"test_system": "B16-F10 murine melanoma cells", "assay": "Cell viability assay (MTT)", "assay_type": "cell-based", "conditions": "mouse, 0.1 mmol/L", "experimental": "as §2", "values": [{"smiles": "O=c1cc(CO)occ1O", "note": "[Kojic acid, reference compound]", "Cell Viability % of control": "116 % of control"}]}, {"test_system": "B16-F10 murine melanoma cells", "assay": "Cell viability assay (MTT)", "assay_type": "cell-based", "conditions": "mouse, 0.5 mmol/L", "experimental": "as §2", "values": [{"smiles": "Oc1ccc(O)cc1", "note": "[Hydroquinone, hydroquinone, reference compound]", "Cell Viability % of control": "3* % of control"}]}, {"test_system": "B16-F10 murine melanoma cells", "assay": "Cell viability assay (MTT)", "assay_type": "cell-based", "conditions": "mouse, 1 mmol/L", "experimental": "as §2", "values": [{"smiles": "O=c1cc(CO)occ1O", "note": "[Kojic acid, reference compound]", "Cell Viability % of control": "92 % of control"}]}]}
